# Patent publication US10294226B2, “Small molecule inhibitors of the JAK family of kinases” (Janssen Pharmaceutica NV, priority 2016, dated 2019)
# Tests used:
# [1] = molecular target: JAK2-JH1JH2 (Homo sapiens (Human), UniProt O60674); test: Enzymatic inhibition assay (HTMS); format: biochemical; details: read-out: JAK2_I_JH1JH2 IC50
# Source text: (§1) JAK1-JH1JH2 (574-1154 with a His-GST Tag and a C-terminal tev (ENLYFQ-G) cleavage site), JAK3-JH1JH2 (512-1124 with a GST Tag and a C-terminal tev (ENLYFQ-G) cleavage site), and Tyk2-JH1JH2 (8H_tev_580-1182-C936A-C1142A with a C-terminal tev (ENLYFQ-G) cleavage site) were purified internally. […] LC/MS grade water and acetonitrile (ACN), were purchased from HoneyWell, Burdick & Jackson (Muskegon, Mich., USA). Dimethylsulfoxide 99.8% (DMSO) and trifluoroacetic acid 99.5% (TFA) were purchased from EMD Chemical (Gibbstown, N.J., USA). Adenosine triphosphate (ATP), 4-morpholinepropanesulfonic acid (MOPS), magnesium chloride (MgCl2), ethylenediaminetetraacetic acid (EDTA), dithiothreitol (DTT), formic acid>95% (FA) and Tween-20 were purchased from Sigma (St Louis, Mo., USA). 384-well polypropylene plates, Cat#781280 were purchased from Greiner (Monroe, N.C.), RapidFire™ cartridge A C4 Column (Agilent Technologies, Santa Clara, Calif.).
# (§2) The HTMS experiments were performed in positive ionization mode on a RapidFire 300 instrument (Agilent Technologies, Santa Clara, Calif.), coupled with an ABSiex QTrap 4000 system with an Electrospray Ionization source (RF-MS) (Concord, ON, Canada). […] The entire system was operated using the RapidFire software interfaced with Analyst software for the mass spectrometer.
# (§3) 11-point dosing series were made for each compound by serially diluting 1:3 or 1:4 in DMSO, with point 12 being a DMSO control. From the serial dilution plates, sample was transferred to a 384 wells assay plate (#781280, Greiner, Monroe, N.C.) using Labcyte Echo (Sunnyvale, Calif.), or Biosero ATS (San Diego, Calif.). The compounds were tested in duplicate. Column 12 was used for positive controls, and column 24 contained negative controls with no enzyme added. A compound from our internal collection, with inhibitory activity for JAK isoforms, was used as a reference compound. The final concentration of DMSO was ≤0.25% in a 20 μL reaction. The enzyme reaction was initiated by the addition of 10 μL of enzyme and ATP mixture to 10 μL of substrate solution prepared in reaction buffer (50 mM MOPS pH 7.5, 10 mM MgCl2, 1 mM EDTA, 2 mM DTT, 0.002% Tween-20). The Tyk2 enzyme was pre-incubated with 2 mM ATP for 30 min prior to the reaction initiation. Immediately after the addition of the enzyme to the reaction mixture, the plate was centrifuged at 1000 rpm for 1 minute and incubated at 25° C. for 45 minutes for JAK3 and 90 minutes for JAK1, JAK2 and Tyk2. The reaction was quenched by the addition of 20 μL of 0.5% TFA containing 0.15 μM of internal standard peptide using Multidrop Combi reagent dispenser (Thermo Scientific, Waltham, Mass.). […] After the quench, the assay plate was centrifuged at 3000 rpm for 3 minutes and sealed with pierceable aluminum foil (Cat#06644-001, Agilent) using a PlateLoc (Agilent Technologies, Santa Clara, Calif.). The plates then were transferred on to the RapidFire for the MS analysis. Compound inhibition was assessed by a decrease of the phosphorylated product levels in sample wells compared to the non-inhibited enzyme reaction.
# (§4) The sample analysis on the RapidFire was performed using a mobile phase A1 consisting of Water/TFA/FA (100:0.01:0.1, v/v/v), a mobile phase B1 consisting of ACN/Water/TFA/FA (80:20:0.01:0.1, v/v/v). […] The samples were aspirated directly from the 384-well assay plate and delivered onto RF-MS microscale solid-phase C4 extraction cartridge (Type A). The undesired component such as salt, cofactor, detergent and large protein were washed out and the retained analytes (substrate, product and IS) were coeluted directly onto the AB Siex Qtrap 4000 system.
# [2] = molecular target: Tyk2-JH1JH2 (Homo sapiens (Human), UniProt P29597, C1142A/C936A); test: Enzymatic inhibition assay (HTMS); format: biochemical; details: read-out: Tyk2_I_JH1JH2 IC50
# Source text: as §1, §2, §3, §4
# [3] = molecular target: JAK3-JH1JH2 (Homo sapiens (Human), UniProt P52333); test: Enzymatic inhibition assay (HTMS); format: biochemical; details: 150 μM ATP; read-out: JAK3_I_JH1JH2 IC50
# Source text: as §1, §2, §3, §4
# [4] = molecular target: JAK1-JH1JH2 (Homo sapiens (Human), UniProt P23458); test: Enzymatic inhibition assay (HTMS); format: biochemical
# Source text: as §1, §2, §3, §4
# [5] = test system: MDCK-MDR1 cell line; test: MDCK-MDR1 permeability assay; format: in vitro ADME; details: @ 5 μM, apical to basolateral, with P-gp inhibitor elacridar (2 μM)
# [6] = test system: P-gp (MDR1); test: MDCK-MDR1 permeability assay; format: in vitro ADME; details: dog
# [7] = In vivo oral (p.o.) dosing, plasma and colon concentrations (Protocols 1 and 2); design: species or system female C57BL/6 mice; details: mice, 25 mg/kg p.o.
# Description: These protocols are described below under the heading In vivo Studies. Three non-fasted female C57BL/6 mice were orally administered test compound at a dose of 25 mg/kg p.o. as a solution in 20% hydroxypropyl-beta-cyclodextrin (HPβCD) at a dose volume of 5 mL/kg. Blood samples were collected at 0.5, 2, and 4 h post dose via retro-orbital bleed or venipuncture of the dorsal metatarsal vein. Blood samples were collected into tubes containing anticoagulant (Heparin-Na) and placed on wet ice. […] Colon samples were collected at 4 h post dose. […] The colon was further washed by putting it in 5 mL of saline and shaken for 5 seconds. The colon sample was then patted dry, weighed, and homogenized as 1 part tissue (g) to 4 parts HPLC grade water (mL). Concentrations of the compound in plasma and colon homogenate were determined using a qualified liquid chromatography-triple quadrupole mass spectrometry (LC-MS/MS) method. […] Three non-fasted female C57BL/6 mice were orally administered test compound at a dose of 25 mg/kg p.o. as a solution in 20% HPβCD at a dose volume of 5 mL/kg. Blood samples were collected at 0.5, 2, and 4 h post dose via retro-orbital bleed or dorsal metatarsal vein. Blood samples were collected into tubes containing anticoagulant (Heparin-Na) and placed on wet ice. […] Colon samples were collected at 4 h post dose. […] The colon was further washed by putting it in 5 mL of saline and shaken for 5 seconds. The colon sample was then patted dry, weighed, and homogenized as 1 part tissue (g) to 4 parts HPLC grade water (mL). Concentrations of the compound in plasma and colon homogenate were determined using a qualified liquid chromatography-triple quadrupole mass spectrometry (LC-MS/MS) method.
# [8] = physchem; details: thermodynamic from solid
# [9] = Polymorph screening, physical stability of crystalline embodiments of compound Ex. 1; format: physicochemical; details: for physical stability of solid form: ambient conditions; for physical stability of solid form after AAC: 2 days at 40° C./70% RH, HT-XRPD; for physical stability of solid form in climate chamber: four days, HR-XRPD
# Description: Long term slurry experiments were performed by suspending compound embodiment 1s in twenty neat solvents and stirred at room temperature for two weeks and at 50° C. for one week. Upon completion of the equilibration time, the residual solids were separated from the mother liquors. The solids were dried under ambient conditions and dried under vacuum (5 mBar) before being analyzed by HT-XRPD. Subsequently, the solids were exposed to accelerated aging conditions (40° C./70% relative humidity) for two days and again analyzed by HT-XRPD.
# Embodiment 1s converted to hydrated embodiment 10 when it was exposed to 100% RH at 25° C. […] This behavior is attributable to an unequally strong binding of all the hydration/solvation molecules. In this case, embodiment 10 would have a less strongly bound second water molecule that would be lost under ambient conditions. More precisely, the physical stability of embodiment 1s was investigated in climate chambers by exposing a 20 mg sample of such embodiment to 40° C. and 70% relative humidity for four days, and another 20 mg sample of the same embodiment was exposed also for four days to 25° C. and 100% relative humidity. After four days, the various solid samples were analyzed by HR-XRPD, the crystal cell parameters were determined and the diffractograms were indexed. From bottom to top, the first diffractogram in FIG. 6 corresponds to embodiment 1s as starting material, and the second corresponds to the same form after a 4-day exposure to 40° C. and 70% relative humidity, noted as “1s 70 RH” in the same figure. […] Indexing for such form was not possible due to the small amount in which it was present. The third diffractogram corresponds to embodiment 1s after a 4-day exposure to 25° C. and 100% relative humidity, noted as “10” in the same figure. […] Upon dehydration, both embodiments 1s and 10 re-crystallized to the anhydrous form with a melting point of 148° C.
# The mother liquors of the solvent equilibration experiments performed at 50° C. were filtered at 50° C. to remove any particulate matter. The suspensions at 50° C. were filtered using 0.2 μm PTFE filters, and the solutions were placed at 5° C. and aged for 72 hours. When solids had precipitated during aging these solids were separated from the liquid, dried under ambient conditions and under vacuum, and analyzed by HT-XRPD. The remaining mother liquors were allowed to slowly evaporate and the remaining solids were analyzed by HT-XRPD. The samples in which no precipitation occurred were placed under vacuum and the dried solids were analyzed by HT-XRPD. All the solids were then exposed to AAC (2 days at 40° C./70% RH) and re-analyzed by HT-XRPD.
# The cooling/evaporative crystallization experiments at μL scale were performed in a 96-well plate, using 12 neat solvents and 12 solvent mixtures and applying four temperature profiles. In each well approximately 4 mg of embodiment 1s was solid dosed. Subsequently, the crystallization solvents (80 μL) and solvent mixtures were added to reach a concentration of 50 mg/mL, and the plate, with each well individually sealed, to subsequently undergo one of the four temperature profiles. Upon completion of the temperature profile the solvents were allowed to evaporate at low ambient pressure (24 hours) and the remaining solids were analyzed by HT-XRPD before and after exposure to AAC for 2 days (40° C./70% RH).
# The cooling crystallization experiments with hot filtration were performed from supersaturated solutions of compound Ex. 1 prepared at 50° C. in different solvent mixtures. The hot filtrated solutions underwent a 48-hour cooling profile. The vials in which solids had precipitated after the temperature profile were centrifuged and the solids were separated from the liquid and analyzed by HT-XRPD (after drying under vacuum). If no solids had precipitated the solutions were evaporated under vacuum and the solids analyzed by HT-XRPD. […]
# JAK3-JH1JH2, sequence (P52333 512-1124): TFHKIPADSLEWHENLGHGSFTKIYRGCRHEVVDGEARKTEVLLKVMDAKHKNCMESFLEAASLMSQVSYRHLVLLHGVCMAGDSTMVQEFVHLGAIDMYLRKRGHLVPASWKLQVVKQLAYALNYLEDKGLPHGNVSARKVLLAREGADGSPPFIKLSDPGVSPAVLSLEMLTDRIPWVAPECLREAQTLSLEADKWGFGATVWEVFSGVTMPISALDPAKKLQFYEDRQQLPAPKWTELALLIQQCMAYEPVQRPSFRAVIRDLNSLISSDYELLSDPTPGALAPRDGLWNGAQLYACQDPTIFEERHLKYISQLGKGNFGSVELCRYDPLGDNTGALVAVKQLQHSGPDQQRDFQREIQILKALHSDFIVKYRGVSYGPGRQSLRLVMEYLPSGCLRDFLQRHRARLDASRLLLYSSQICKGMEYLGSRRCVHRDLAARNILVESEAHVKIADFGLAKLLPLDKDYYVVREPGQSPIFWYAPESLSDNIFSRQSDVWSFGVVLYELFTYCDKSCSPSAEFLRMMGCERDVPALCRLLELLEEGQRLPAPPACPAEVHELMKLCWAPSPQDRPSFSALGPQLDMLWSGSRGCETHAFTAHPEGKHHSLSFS
# Tyk2-JH1JH2, sequence (P29597 580-1182 C936A/C1142A): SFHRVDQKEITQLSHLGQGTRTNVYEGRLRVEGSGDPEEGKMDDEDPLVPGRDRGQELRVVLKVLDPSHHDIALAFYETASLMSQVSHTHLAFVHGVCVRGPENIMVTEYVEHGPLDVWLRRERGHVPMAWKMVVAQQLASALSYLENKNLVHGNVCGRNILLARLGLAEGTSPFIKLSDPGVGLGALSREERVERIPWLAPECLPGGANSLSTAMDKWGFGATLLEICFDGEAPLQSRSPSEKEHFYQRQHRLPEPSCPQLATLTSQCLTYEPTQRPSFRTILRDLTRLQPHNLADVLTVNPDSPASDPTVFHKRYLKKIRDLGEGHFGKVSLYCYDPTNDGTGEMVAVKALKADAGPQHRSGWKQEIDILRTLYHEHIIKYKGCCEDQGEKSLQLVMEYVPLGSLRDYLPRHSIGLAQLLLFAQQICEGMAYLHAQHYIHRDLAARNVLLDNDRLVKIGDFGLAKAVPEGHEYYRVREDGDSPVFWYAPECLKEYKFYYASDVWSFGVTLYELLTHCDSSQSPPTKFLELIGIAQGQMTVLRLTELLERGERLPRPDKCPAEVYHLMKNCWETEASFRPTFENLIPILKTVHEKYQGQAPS
# JAK1-JH1JH2, sequence (P23458 574-1154): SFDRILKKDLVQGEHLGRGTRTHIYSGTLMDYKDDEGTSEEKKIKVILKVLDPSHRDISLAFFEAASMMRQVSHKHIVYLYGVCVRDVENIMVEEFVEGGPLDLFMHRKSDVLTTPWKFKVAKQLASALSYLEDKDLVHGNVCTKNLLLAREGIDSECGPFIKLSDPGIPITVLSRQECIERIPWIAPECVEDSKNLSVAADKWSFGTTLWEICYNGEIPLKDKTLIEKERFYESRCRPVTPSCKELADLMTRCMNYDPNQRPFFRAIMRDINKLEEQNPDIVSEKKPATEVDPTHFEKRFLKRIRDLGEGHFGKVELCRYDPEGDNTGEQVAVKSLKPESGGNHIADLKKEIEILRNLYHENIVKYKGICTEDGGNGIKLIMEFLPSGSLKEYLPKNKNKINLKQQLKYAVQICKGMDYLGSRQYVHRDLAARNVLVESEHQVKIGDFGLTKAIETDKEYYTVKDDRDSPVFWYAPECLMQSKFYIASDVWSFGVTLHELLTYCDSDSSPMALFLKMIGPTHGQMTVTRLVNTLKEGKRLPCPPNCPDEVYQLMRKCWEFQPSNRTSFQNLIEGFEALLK
structure (smiles),measurement,setting,value
"C[C@@H](O)c1nc2cnc3[nH]ccc3c2n1[C@H]1CC[C@H](CC#N)CC1 [C, reference compound]",IC50,[1],[…]
same,IC50,[2],200 pM
same,IC50,[3],49700 pM
same,IC50,[4],< 200 pM
same,MDCK-MDR1 P^eapp(A-B),[5],2.5 10^−6 cm/sec
same,"Papp A→B at 60 min, 5 μM","[6]; MDCK-MDR1, pH 7.4, @ 5 μM, apical to basolateral, without elacridar, read-out: MDCK-MDR1 Papp(A-B)",0.5 ×10⁻⁶ cm/s
same,"Papp B→A at 60 min, 5 μM","[6]; MDCK-MDR1, pH 7.4, @ 5 μM, basolateral to apical",23.1 ×10⁻⁶ cm/s
same,solubility,"[8]; pH 6.5, fassif",> 400 µM
same,solubility,[8]; simulated gastric fluid,> 400 µM
CC(C)(O)CNC(=O)Cc1nc2cnc3[nH]ccc3c2n1[C@H]1CC[C@H](CC#N)CC1 [Embodiment 4],physical stability of solid form,[9],did not appear to be physically stable
CC(C)(O)CNC(=O)Cc1nc2cnc3[nH]ccc3c2n1[C@H]1CC[C@H](CC#N)CC1 [Embodiment 5],physical stability of solid form after AAC,[9],physically unstable
CC(C)(O)CNC(=O)Cc1nc2cnc3[nH]ccc3c2n1[C@H]1CC[C@H](CC#N)CC1 [Embodiment 6],physical stability of solid form after AAC,[9],stable solid form
CC(C)(O)CNC(=O)Cc1nc2cnc3[nH]ccc3c2n1[C@H]1CC[C@H](CC#N)CC1 [Embodiment 7],physical stability of solid form after AAC,[9],physically stable
CC(C)(O)CNC(=O)Cc1nc2cnc3[nH]ccc3c2n1[C@H]1CC[C@H](CC#N)CC1 [embodiment 1s],physical stability of solid form in climate chamber,[9]; 25° C. and 100% relative humidity,conversion of embodiment 1s into embodiment 10
same,physical stability of solid form in climate chamber,[9]; 40° C. and 70% relative humidity,initial embodiment 1s had been recovered
CC(C)(O)CNC(=O)Cc1nc2cnc3[nH]ccc3c2n1[C@H]1CC[C@H](CC#N)CC1 [embodiment 2],physical stability of solid form after AAC,[9],converted to embodiment 3e
CC(C)(O)CNC(=O)Cc1nc2cnc3[nH]ccc3c2n1[C@H]1CC[C@H](CC#N)CC1 [embodiment 10],physical stability of solid form,[9],physically not stable
